Assays:
p75^NTR receptor [1] = biological target: T1, p75^NTR receptor (Homo sapiens, UniProt P08138); assay: p75NTR receptor dimerisation independently of its ligand (soluble p75NTR-alkaline phosphatase binding to SK-N-BE Bep 75 cells); set-up: the whole form of the human p75^NTR receptor; expressed in transfected cells; host or cells: SK-N-BE Bep 75 cells (membrane receptor); HEK293 cells transfected for 48 h (secreted soluble fusion)
T1 sequence (P08138 29-427): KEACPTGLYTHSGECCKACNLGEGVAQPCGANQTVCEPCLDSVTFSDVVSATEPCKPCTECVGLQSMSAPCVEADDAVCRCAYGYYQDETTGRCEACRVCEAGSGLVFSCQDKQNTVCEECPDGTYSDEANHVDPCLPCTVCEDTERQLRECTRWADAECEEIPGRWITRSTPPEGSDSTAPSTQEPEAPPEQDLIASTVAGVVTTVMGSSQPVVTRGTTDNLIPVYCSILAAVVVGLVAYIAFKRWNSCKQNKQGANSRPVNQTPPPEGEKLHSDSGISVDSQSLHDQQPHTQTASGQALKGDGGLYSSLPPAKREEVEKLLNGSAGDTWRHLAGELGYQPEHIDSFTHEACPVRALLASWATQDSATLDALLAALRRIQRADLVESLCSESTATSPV
Method: (§1) The parent strain SK-N-BE (human neuroblastoma) and the clone Bep 75, stably expressing the whole form of the human p75^NTR receptor (SK-N-BE Bep 75), are cultured conventionally in an RPMI culture medium containing FCS (5%), sodium pyruvate (1 mM) and glutamine (4 mM). For the SK-N-BE Bep 75 cells, hygromycin (200 μl/20 ml of medium) is added as selection agent.
Study of p75^NTR receptor dimerisation independently of its ligand The study of p75^NTR receptor dimerisation is carried out on a cell suspension of the SK-N-BE Bep 75 strain. The cells (2.5×10^4 cells/well) are placed in wells (96-well plate) for 24 h, and then preincubated for 1 h at 37° C. in the presence or absence of the compounds according to the invention. Supernatant, derived from culturing HEK293 human cells of renal origin expressing, after transfection for 48 h, and secreting a soluble form of the p75^NTR receptor (extracellular part of the receptor) coupled to an alkaline phosphatase, is then added at the final concentration of 10 nM. The quantification of the specific binding of the soluble p75^NTR receptor to the receptor present on SK-N-BE Bep 75 cells is determined by measuring the enzymatic alkaline phosphatase activity after incubation of the cells for 1 hour at 37° C. in the presence of the supernatant. After filtration and transfer of the filters into 24-well plates, the alkaline phosphatase activity is determined by adding CDP-Star chemiluminescent substrate (ready-to-use, Roche).

[2] = tested on: human neuroblastoma strains SH-SY-5Y and SK-N-BE Bep 75; assay: Measurement of apoptosis (NGF-induced, cell death detection ELISA); assay type: cell-based; conditions: SH-SY5Y, NGF 10 ng/ml, 48 h (SH-SY-5Y) or 24 h (SK-N-BE Bep 75), cell strain not given, read-out: IC50 of NGF-induced apoptosis inhibition
Method: The SH-SY-5Y strain (human neuroblastoma) is cultured conventionally in a DMEM culture medium (Dulbecco's Modified Eagle's Medium) (Gibco BRL, France) containing FCS (5%) (foetal calf serum) (Boehringer Mannheim, Germany), sodium pyruvate (1 mM) and glutamine (4 mM) in collagen-coated culture flasks (Becton Dickinson, France).
as §1
The cells (human neuroblastoma strains SH-SY-5Y and SK-N-BE Bep 75) are placed in Petri dishes 35 mm in diameter (Biocoat collagen I (10^5 cells/well)) in an appropriate culture medium containing 5% FCS for 24 h. The culture medium is then removed, the cells are rinsed with PBS (Dulbecco's Phosphate buffered saline), and then either fresh medium containing 5% FCS, or medium containing NGF (at the concentration of 10 ng/ml) or beta-amyloid peptide (Aβ1-40) (at the concentration of 10 μM) is added, in the presence or absence of the compounds according to the invention. The degrees of apoptosis are measured 48 hours after the treatments in the case of the SH-SY-5Y strain, and 24 hours after the treatments in the case of the SK-N-BE Bep 75 strain, by quantifying the cytoplasmic histones associated with DNA fragments (cell death detection ELISA, Boehringer Mannheim, Germany). The degrees of apoptosis are expressed as quantity of oligonucleosomes/10^5 cells. Each value corresponds to the mean of 9 experimental points distributed over 3 independent experiments.

p75^NTR receptor [3] = biological target: T1, p75^NTR receptor; assay: Binding of 125I NGF to the p75NTR receptor on SK-N-BE Bep 75 cell suspension; set-up: the whole form of the human p75^NTR receptor; expressed in transfected cells; host or cells: SK-N-BE (human neuroblastoma), clone Bep 75, hygromycin selection
Method: as §1
Study of the binding of ^125I NGF to the p75^NTR receptor The study of NGF binding (nerve growth factor radiolabelled with iodine-125, Amersham—2000 Ci/mmol) is carried out on a cell suspension of the SK-N-BE Bep 75 strain in accordance with the method described by Weskamp (Neuron, 1991, 6, 649-663). The non-specific binding is determined by measuring the total binding after preincubation for one hour with cells at 37° C. in the presence of non-radiolabelled NGF (1 μM). The specific binding is calculated by the difference between the total binding measurement and the non-specific binding measurement. The competition experiments are carried out using an iodinated NGF (^125I NGF) concentration of 0.3 nM.

With `O=C(CN1C2CCC1CN(c1cnccn1)C2)N1CC=C(c2cccc(C(F)(F)F)c2)CC1` [Compound No. 3, 2-(3-pyrazin-2-yl-3,8-diazabicyclo[3.2.1]oct-8-yl)-1-[4-(3-trifluoromethylphenyl)-3,6-dihyro-2H-pyridin-1-yl]ethanone] the IC50 (p75^NTR receptor [1]) was 0.05 nM and the IC50 [2] was 0.067 nM.

In the case of `COC(=O)c1ccc(N2C3CCC2CN(CC(=O)N2CC=C(c4ccc(Cl)c(C(F)(F)F)c4)CC2)C3)nc1` [Compound No. 28, 6-(3-{2-[4-(4-chloro-3-trifluoromethylphenyl)-3,6-dihydro-2H-pyridin-1-yl]-2-oxoethyl}-3,8-diazabicyclo[3.2.1]oct-8-yl)nicotinic acid methyl ester], the IC50 (p75^NTR receptor [1]) is reported as 9.84 nM.

Work on `O=C(CN1CC2CCC(C1)N2c1ncccn1)N1CC=C(c2ccc(Cl)cc2)CC1` [Compound No. 2, 1-[4-(4-chlorophenyl)-3,6,-dihydro-2H-pyridin-1-yl]-2-(8-pyrimidin-2-yl-3,8-diazabicyclo[3.2.1]oct-3-yl)ethanone] yielded an IC50 (p75^NTR receptor [3]) of 0.18 nM.

Compound `O=C(CN1CC2CCC(C1)N2c1ccc(C(F)(F)F)cn1)N1CC=C(c2cccc(C(F)(F)F)c2)CC1` [Compound No. 1, 1-[4-(3-trifluoromethylphenyl)-3,6-dihydro-2H-pyridin-1-yl]-2-[8-(5-trifluoromethylpyridin-2-yl)-3,8-diazabicyclo[3.2.1]oct-3-yl]ethanone] has an IC50 (p75^NTR receptor [3]) of 1.35 nM, an IC50 (p75^NTR receptor [1]) of 23.4 nM and an IC50 [2] of 1.33 nM.

`O=C(CN1CC2CCC(C1)N2c1cccnc1)N1CC=C(c2ccc(Cl)c(C(F)(F)F)c2)CC1` [Compound No. 27, 1-[4-(4-chloro-3-trifluoromethylphenyl)-3,6-dihydro-2H-pyridin-1-yl]-2-(8-pyridin-3-yl-3,8-diazabicyclo[3.2.1]oct-3-yl)ethanone] gave an IC50 (p75^NTR receptor [1]) of 0.23 nM and an IC50 [2] of 0.088 nM.

In the case of `O=C(CN1CC2CCC(C1)N2c1ccc(C(F)(F)F)cn1)N1CC=C(c2ccc(Cl)cc2)CC1` [Compound No. 7, 1-[4-(4-chlorophenyl)-3,6-dihydro-2H-pyridin-1-yl]-2-[8-(5-trifluoromethylpyridin-2-yl)-3,8-diazabicyclo[3.2.1]oct-3-yl]ethanone], the IC50 (p75^NTR receptor [3]) is reported as 0.29 nM.

With `O=C(O)c1ccc(N2C3CCC2CN(CC(=O)N2CC=C(c4ccc(Cl)c(C(F)(F)F)c4)CC2)C3)nc1` [Compound No. 29, 6-(3-{2-[4-(4-chloro-3-trifluoromethylphenyl)-3,6-dihydro-2H-pyridin-1-yl]-2-oxoethyl}-3,8-diazabicyclo[3.2.1]oct-8-yl)nicotinic acid] the IC50 (p75^NTR receptor [1]) was 0.14 nM and the IC50 [2] was 0.22 nM.

With `O=C(CN1CC2CCC(C1)N2c1ccc(C(F)(F)F)cn1)N1CC=C(c2ccc(Cl)c(C(F)(F)F)c2)CC1` [Compound No. 8, 1-[4-(4-chloro-3-trifluoromethylphenyl)-3,6-dihydro-2H-pyridin-1-yl]-2-[8-(5-trifluoromethylpyridin-2-yl)-3,8-diazabicyclo[3.2.1]oct-3-yl]ethanone] the IC50 (p75^NTR receptor [1]) was 0.68 nM and the IC50 [2] was 2.24 nM.

For `COC(=O)c1cccc(C2=CCCN(C(=O)CN3CC4CCC(C3)N4c3ncc(F)cn3)C2)c1` [Compound No. 53, 3-(1-{2-[8-(5-fluoropyrimidin-2-yl)-3,8-diazabicyclo[3.2.1]oct-3-yl]acetyl}-1,2,5,6-tetrahydropyridin-3-yl)benzoic acid methyl ester], the IC50 (p75^NTR receptor [1]) was 2.08 nM.

Compound `O=C(CN1CC2CCC(C1)N2c1ncc(F)cn1)N1CC=C(c2ccc(Cl)c(C(F)(F)F)c2)CC1` [Compound No. 11, 1-[4-(4-chloro-3-trifluoromethylphenyl)-3,6-dihydro-2H-pyridin-1-yl]-2-[8-(5-fluoropyrimidin-2-yl)-3,8-diazabicyclo[3.2.1]oct-3-yl]ethanone] has an IC50 (p75^NTR receptor [3]) of 0.98 nM, an IC50 (p75^NTR receptor [1]) of 0.2 nM and an IC50 [2] of 0.21 nM.
